Experimental data as given in patent publication US20260193668A1, “NOVEL PEPTIDES AND USE THEREOF FOR MODULATING PROTEIN ACCUMULATION” (UNIVERSITE TOULOUSE III - PAUL SABATIER, priority 2022, published 2026).

Assays:
[1] = system: A. thaliana plants; test: Flowering day of A. thaliana plants; format: in vivo, Arabidopsis thaliana; conditions: sprayed with 10 μM peptide three times a week until flowering
Method: (§1) (a, b) Length of primary roots of A. thaliana seedlings treated with a Scrambled cPEPdcl1 or with a cPEPdcl1. (c) Relative chlorophyll content of A. thaliana seedlings treated with the corresponding peptide. (d) Resumption of growth of A. thaliana seedlings after heat shock at 45° C. for 45 min and treated with the corresponding peptide. (e) Relative lesion area of A. thaliana seedlings infected with B. cinerea and treated with the indicated peptide. (f) Measurement of the flowering day of A. thaliana plants treated with the indicated peptides. (g, h) Flowering day of A. thaliana plants treated with an irrelevant peptide or a mixture of cPEPs (targeting EIN2, BR11, BAK1 and WUS). (i, j) Leaf area of A. thaliana plants treated with an irrelevant peptide or a mixture of cPEPs (targeting EIN2, BR11, BAK1 and WUS).
N. benthamiana plants were treated by spraying the leaves 24 h before harvesting. For Luc assays, 100 μL of MS/2 liquid medium containing the peptides was added to each well. 5 μL of luciferin was added and luciferase activity was read 30 min later using a spectrophotometer. All other assays were performed by spraying or watering the plants. To quantify the protein level induced by cPEPs in Arabidopsis, rosettes were sprayed daily with 100 μM of peptide or its control for 5 days. Leaves were harvested 6 h after the last treatment for western blot analysis. For the flowering assay and chlorophyll content, 10-day-old Arabidopsis plants were sprayed with 500 μL of 10 μM peptide three times a week until flowering. Chlorophyll content was measured using the SPAD chlorophylometer (Konica Minolta). Leaf area was measured using ImageJ software. Barbarea vulgaris and A. hypochondriacus seedlings were treated immediately after sowing and 3 times a week with 500 μL of a 20 μM mixture of each peptide. For western blotting, a heat shock was performed by placing 20-day-old plants grown in 24-well plates on MS/2 for 90 min at 37° C. before harvesting. The plants were treated with 100 μM of peptide for 24 h. For the heat shock resistance test on A. thaliana, 3-day-old seedlings were treated for three days with 100 μM of peptide before placing the plants at 45° C. for 45 min. The plants were placed in a growth chamber to recover and treated 24 h after heat shock with 100 μM of peptide. For soybean heat shock, one-week-old seedlings were treated for 48 h, 24 h and 30 min before being placed at 45° C. for 24 h. For soybean growth, seedlings were treated 3 times a week for a fortnight with 500 μL of 100 μM peptide.

[2] = system: Botrytis cinerea; test: Infection assay of A. thaliana leaves inoculated with B. cinerea; format: in vivo; conditions: 100 μM peptide, compared with plants treated with an irrelevant peptide
Method: as §1
(a) Quantification of CPK3 expression, using CPK3 antibodies, in peptide-treated A. thaliana plants. (b-c) Infection assay of peptide-treated A. thaliana leaves inoculated with B. cinerea spores.
Wild-type or mutant A. thaliana leaves were sprayed daily with 100 μM of peptide or 100 μM of the corresponding scramble version for 3 days. Six hours after the last treatment, five mature leaves per plant were inoculated with a 5 μL droplet of 2.5×10^5 spores/mL of Botrytis cinerea strain B05.10 diluted in 100 μM of peptide or its corresponding scramble version. After inoculation, plants were maintained at 100% relative humidity. Then, a 2 μL droplet of 100 μM of peptide or 100 μM of the corresponding scramble version was deposited daily on B. cinerea-infected leaves for 3 days (until symptoms appeared). Leaves were removed from the plants to determine lesion areas using the ImageJ programme. For tomato, the protocol was the same except that inoculation was carried out with 5,000 B. cinerea spores, without peptides. Peptides were added 1 h after inoculation (1 μL of 500 μM) and each day for two days with 5 μL of 100 μM peptide. For infection of M. truncatula with A. euteiches, plants were grown on agar medium and treated with 10 μL of 100 μM peptide, 24 h before, 24 h and 72 h after infection with 10 μL (1000 spores) of A. euteiches spores. Plants were harvested 7 days after inoculation for RNA extraction.

[3] = system: M. truncatula seedlings; test: Formation of lateral roots of M. truncatula seedlings; format: in vivo, Medicago truncatula
Excerpt: (a) FRET-FLIM analysis of the interaction between cPEPnsp1-FAM and NSP1 (left) or NSP1ΔcPEP (right) in planta. (b) qRT-PCR quantification of NSP1 expression in M. truncatula roots treated with cPEPnsp1 or Scrambled cPEPnsp1. (c) GUS quantification of peptide-treated M. truncatula roots carrying the Pro NSP1-NSP1-GUS fusion. (d, e) Quantification of NSP1 expression in N. benthamiana leaves after infiltration of different constructs: ‘wild type’ i.e. version of NSP1 wherein the cPEP sequence has been deleted (NSP1 ΔcPEP) or version of NSP1 wherein the cPEP sequence has been replaced by an artificial sequence (NSP1 ΔcPEP-cPEPartificial), with an empty vector (control) or cPEPnsp1 or cPEPartificial. (f, g) Formation of lateral roots of M. truncatula WT seedlings, nsp1 or overexpressing NSP1, in response to cPEPnsp1 or Scrambled cPEPnsp1. (h, i) Quantification of nodules on roots of M. truncatula roots treated with an irrelevant peptide or cPEPskl. […]
In order to verify whether cPEPs can target any protein, the activity of 12 cPEPs targeting 12 different proteins for which antibodies were available was studied and validated in three different plant species. The question was whether the increase in the quantity of proteins observed after treatment with cPEP was sufficient to modulate plant development. […]

[4] = system: A. thaliana seedlings; test: Relative chlorophyll content of A. thaliana; format: in vivo, Arabidopsis thaliana; conditions: sprayed with 10 μM peptide three times a week
Method: as §1
N. benthamiana plants were treated by spraying the leaves 24 h before harvesting. For Luc assays, 100 μL of MS/2 liquid medium containing the peptides was added to each well. 5 μL of luciferin was added and luciferase activity was read 30 min later using a spectrophotometer. […] To quantify the protein level induced by cPEPs in Arabidopsis, rosettes were sprayed daily with 100 μM of peptide or its control for 5 days. […] Chlorophyll content was measured using the SPAD chlorophylometer (Konica Minolta). Leaf area was measured using ImageJ software. […]

[5] = system: luciferase mRNA; test: RNA-IP followed by PCR on plants treated with HA-tagged peptides; format: binding, Arabidopsis thaliana; conditions: anti-HA magnetic beads
Excerpt: Analysis of luciferase expression in A. thaliana constitutively expressing the LUC transgene. (a) Agarose gel after PCR amplification of RNA obtained by immunoprecipitation using anti-HA magnetic beads, followed by RT-PCR, on plants treated with the indicated peptide (SC-HA: Scrambled cPEPluc-HA; Luc-HA: cPEPluc-HA). (b) Relative expression of the luciferase transgene in plants treated with the indicated peptide, quantified by RT-qPCR. (c-e) Relative quantification of LUC in plants treated with the indicated peptide. (f, g) Ratio between induction and quantification of LUC in plants treated with cPEPluc compared to plants treated with Scrambled cPEPluc, using different peptide concentrations (f) or taken at different time points (g). (h) Transcriptomic analysis of plants treated with cPEPluc-HA compared to plants treated with Scrambled cPEPluc-HA. (i) Proteomic analysis of plants treated with cPEPluc-HA compared to plants treated with Scrambled cPEPluc-HA. Protein expression was analysed by Western blots and quantified using ImageJ.
RNA co-immunoprecipitation was adapted from Merret et al. (Plant Physiol. 174:1216-1225. 2017). 400 mg of tissue powder was incubated in 3 mL of lysis buffer (200 mM Tris, pH 9.0, 110 mM potassium acetate, 0.5% Triton X-100, 0.1% Tween© 20, 5 mM DTT, 1.5% protease inhibitor and 80 units·ml-1 RNasin). […]

[6] = system: Aphanomyces euteiches; test: M. truncatula seedlings infected with A. euteiches; format: in vivo; conditions: 100 μM peptide
Excerpt: (a) FRET-FLIM analysis of the interaction between cPEPnsp1-FAM and NSP1 (left) or NSP1ΔcPEP (right) in planta. (b) qRT-PCR quantification of NSP1 expression in M. truncatula roots treated with cPEPnsp1 or Scrambled cPEPnsp1. (c) GUS quantification of peptide-treated M. truncatula roots carrying the Pro NSP1-NSP1-GUS fusion. (d, e) Quantification of NSP1 expression in N. benthamiana leaves after infiltration of different constructs: ‘wild type’ i.e. version of NSP1 wherein the cPEP sequence has been deleted (NSP1 ΔcPEP) or version of NSP1 wherein the cPEP sequence has been replaced by an artificial sequence (NSP1 ΔcPEP-cPEPartificial), with an empty vector (control) or cPEPnsp1 or cPEPartificial. (f, g) Formation of lateral roots of M. truncatula WT seedlings, nsp1 or overexpressing NSP1, in response to cPEPnsp1 or Scrambled cPEPnsp1. (h, i) Quantification of nodules on roots of M. truncatula roots treated with an irrelevant peptide or cPEPskl. (j) Root development of M. truncatula seedlings infected with A. euteiches and treated with an irrelevant peptide or cPEPrh10. (k) Relative expression of A. euteiches α-tubulin in M. truncatula seedlings infected with A. euteiches and treated with an irrelevant peptide or cPEPrh10.
Quantification of mRNAs was performed by qRT-PCR using appropriate primer pairs selected from the sequences: SEQ ID NOs: 367 to 374. […]

## SEQ ID NO: 198 (RHRNLVRLQG; AhBRI1)
[1]
  plant development, measured by the day of flowering: decrease

## SEQ ID NO: 184 (LRETDLKDRR; cPEPphyb)
[1]
  plant development, measured by the day of flowering: decrease

## SEQ ID NO: 194 (ERKFRLHKSP; cPEPabcg34)
[2]
  lesion size (plant defence against Botrytis cinerea): decrease

## cPEPnsp1 (DYGTKSNIRS; cPEPnsp1_3)
[3]; M. truncatula WT seedlings
  amount of lateral roots: decreased
[3]; nsp1 mutant and NSP1-overexpressing M. truncatula
  sensitivity of lateral root formation to the peptide: insensitive

## SEQ ID NO: 407 (EWKKVKGKMS; cPEPsgr1)
[4]
  chlorophyll content: increasing

## SEQ ID NO: 183 (SDFSSKYRED; cPEPga2ox7)
[1]
  plant development, measured by the day of flowering: decrease

## SEQ ID NO: 162 (RSSKTELWTR; cPEPcpk3)
[2]
  lesion size (plant defence against Botrytis cinerea): decrease

## SEQ ID NO: 187 (KEPEQRKRKS; cPEPmapkkk3)
[2]
  lesion size (plant defence against Botrytis cinerea): decrease

## SEQ ID NO: 182 (ASGNETDEYD; cPEPspt)
[1]
  plant development, measured by the day of flowering: decrease

## cPEPluc-HA: HA-tagged cPEPluc (KRYGLNTNHRYPYDVPDYA; cPEPluc-HA)
[5]
  interaction with luciferase mRNA (RNA-IP followed by PCR): able to interact

## cPEPmrb1 (NSEITKTAND; cPEPmrb1) [SEQ ID NO: 180]
[1]
  plant development, measured by the day of flowering: increased

## cPEPjar1 (PETNFERDSS; cPEPjar1) [SEQ ID NO: 192, cPEP targeting the A. thaliana plant defence regulator JAR1]
[2]
  lesion size (plant defence against Botrytis cinerea): decrease

## SEQ ID NO: 412 (QRLSLRNPLK; cPEPrh10)
[6]
  root development (resistance to the pathogen): increased
[6]; 7 days after inoculation
  expression of A. euteiches α-tubulin in roots: decreased

## SEQ ID NO: 186 (HGEARDSEEV; cPEPshr)
[1]
  plant development, measured by the day of flowering: decrease

## SEQ ID NO: 406 (EKVVERRQRR; cPEPabi5)
[4]
  chlorophyll content: decreasing

## SEQ ID NO: 204 (NPVERSRHRD; cPEPein2_1)
[1]
  plant development, measured by the day of flowering: decrease

## SEQ ID NO: 199 (ARGLAYLHE; AhBAK1)
[1]
  plant development, measured by the day of flowering: decrease

## SEQ ID NO: 181 (NKGKTVEGWR; cPEPtap46)
[1]
  plant development, measured by the day of flowering: decrease

## SEQ ID NO: 185 (VERRETPSGE; cPEPhag5)
[1]
  plant development, measured by the day of flowering: decrease

## cPEPwus (RWTPTTEQIK; cPEPwus) [SEQ ID NO: 196]
[1]
  plant development, measured by the day of flowering: decrease

## SEQ ID NO: 188 (PLTGGRRDSK; cPEPmapkkk5_1)
[2]
  lesion size (plant defence against Botrytis cinerea): decrease

## SEQ ID NO: 386: Scrambled peptide corresponding to HA-tagged cPEPluc (RNYKNGRTHLYPYDVPDYA; Scrambled cPEPluc-HA) [reference compound]
[5]
  interaction with luciferase mRNA (RNA-IP followed by PCR): could not

## cPEPshy2 (EENRSELLQR; cPEPshy2) [SEQ ID NO: 178]
[1]
  plant development, measured by the day of flowering: increased

## SEQ ID NO: 195 (IRLDTGEEPD; cPEPagb1)
[2]
  lesion size (plant defence against Botrytis cinerea): decrease
